Reference: patent US20240207421A1, “NERVE TARGETING PEPTIDES AND METHODS OF USE” (ALUME BIOSCIENCES, INC., priority 2020, published 2024)

Assays:
[1] = tested on: excised human nerve tissue (or nerve extracts); test: Phage display library screening (Example 2), NEB tissue-binding peptides: nerve tissue and nerve extracts versus muscle; conditions: unique sequence count, peptides not binding muscle extracts; for Count Excised Nerve: tissue target: excised nerve; for Count Nerve Extract: tissue target: nerve extract; for Count Neuron: tissue target: neuron
Protocol: Phage display library screens were used to identify peptides that bind to target proteins (including specific laminin trimers) that are expressed in human nerves, as described in Table 3. These screens were also carried out to identify peptides that could bind selectively to nerves versus muscle. Such peptides could therefore be useful for systemic in-vivo labeling of nerves during fluorescence assisted surgery. Specifically, m 13 phage libraries expressing 7 or 12 random amino acid peptides, or a cyclic peptide CX7C, on the N-terminus of the minor coat protein pIII (New England Biolabs; NEB) were processed through multiple rounds of selection for binding to target proteins expressed in nerves, or to excised human nerves, nerve extracts, or muscle, as described further below.
To identify peptides selective for nerves versus muscle, phage from the same libraries used for specific target proteins were used to screen against excised human nerve tissue (or nerve extracts) and human muscle tissue.
Excised Nerve Tissue: Phage were processed through multiple cycles of selection, with representative phage being isolated and sequenced after each selection cycle. Specifically, for selection using human nerve tissue, a sample of […] tissue (2 mm by 2 mm) was washed prior to mixing and incubation with a phage library. After incubation, the mixture (containing mostly intact nerves with phage particles that had variable affinity for nerves) was centrifuged and the nerve pellet washed multiple times with PBS to remove phage with little or no affinity for nerve tissue. The pellet was homogenized and plated for titering and reamplification. Phage that were bound at each round were sequenced. NextGen sequencing of pools after 2, 3 and 4 rounds of selection were used to isolate candidate sequences that were further analyzed using bioinformatics.
Nerve Extracts: Phage libraries were incubated for up to 24 hours at 4° C. in 96 well plates that had been coated with a human nerve extract. Plates were then washed with PBS and phage were eluted using 0.2M glycine pH 2.0. Phage supernatants where then neutralized with Tris pH 9.0 prior to plating on TG1 bacteria and LB agar plates. Colonies were counted to determine titer followed by DNA preparation of pools of phage and NextGen sequencing. After rounds of selection, phage were pooled and amplified for iterative selection. Phage that eluted by 0.2M glycine pH 2.0 (the nerve binders) at each round were sequenced. NextGen sequencing of pools after 2, 3 and 4 rounds of selection were used to isolate candidate sequences that were further analyzed using bioinformatics.
Muscle Tissue: Phage were processed through multiple cycles of selection, with representative phage being isolated and sequenced after each selection cycle. Specifically, for selection using human skeletal muscle tissue, a sample of skeletal muscle tissue (2 mm by 2 mm) was washed prior to mixing and incubation with a phage library. After incubation, the mixture (containing mostly intact muscle with phage particles that had variable affinity for muscle) was centrifuged and the muscle pellet washed multiple times with PBS to remove phage with little or no affinity for muscle tissue. The pellet was then homogenized and plated for titering and reamplification. Phage that were bound at each round were sequenced. NextGen sequencing of pools after 2, 3 and 4 rounds of selection were used to isolate candidate sequences that were further analyzed using bioinformatics.
For all NEB sequence datasets, a python script was used to translate, trim, and filter the peptide sequences (see details above). A python script was used to group peptides from different assays according to tissue target (muscle, nerve, neuron, or nerve extract) and combine the unique sequence counts for each peptide. […]

[2] = target: Laminin 421/521; test: phage display, NGS count

Row | Count [2] | Molecule | Count Excised Nerve [1] | Count Nerve Extract [1] | Count Neuron [1]
1 | – | GMRTGDDSPKYP | 14 | 21 | 7
2 | – | TLNARDQLSING (nerve-binding peptide) | 7 | 13 | 6
3 | – | WDVAWLERRALH | 23 | 43 | 20
4 | – | HSGAYTIQASYK | 9 | 15 | 6
5 | – | EMVPMKFLMMAK | 8 | 14 | 6
6 | – | NTEYSRYTSIWK | 8 | 14 | 6
7 | – | SPMANVWFNRLS | 7 | 17 | 10
8 | – | YSANSNPKKSLM | 11 | 17 | 6
9 | – | EESNAKLELLSR | 12 | 26 | 14
10 | – | TEWMVRASSIGE | 6 | 14 | 8
11 | – | QNIVENFIDNER | 20 | 27 | 7
12 | – | HGIVFSKRPFSN | 12 | 23 | 11
13 | – | SDHTFKRVMFRW | 8 | 15 | 7
14 | – | ALNHNGPVKTGL | 10 | 16 | 6
15 | – | RTVITNEMLLLV | 7 | 13 | 6
16 | – | YAWDTVASRNYK | 14 | 20 | 6
17 | – | VNYQTPWNKHWY | 10 | 21 | 11
18 | – | DVMQMFHQVHFY | 10 | 17 | 7
19 | – | EIIVMSGSNVTN | 9 | 15 | 6
20 | – | TSAHHDRTLAGS | 6 | 12 | 6
21 | – | SSLYMNGWSRDQ | 23 | 49 | 26
22 | – | VPVPKKMSLDPT | 8 | 14 | 6
23 | – | SLQLWNSEKVTT | 10 | 16 | 6
24 | – | QSTLGVHMLRVS | 6 | 13 | 7

Row | Count [2] | Molecule | Count Excised Nerve [1] | Count Nerve Extract [1] | Count Neuron [1]
25 | – | GWQMFPPMQNTR | 10 | 50 | 40
26 | – | NGMNWLQVHQLS | 12 | 18 | 6
27 | – | SGWHLVMSMSIG | 6 | 12 | 6
28 | – | LQTHSITYRHER | 7 | 19 | 12
29 | – | NYAVGDRITKNI | 18 | 25 | 7
30 | – | VTDMLGIPKLHA | 18 | 28 | 10
31 | – | MLRHVDLTEPNA | 7 | 13 | 6
32 | – | YANGIEAKDSSR | 14 | 20 | 6
33 | – | YAGQNGWMRSDL | 28 | 45 | 17
34 | – | SEPIEKGSRTIV | 7 | 13 | 6
35 | – | IPGQTPRMPHSK | 8 | 21 | 13
36 | – | GLLREPDELMFL | 18 | 27 | 9
37 | – | VERLNWPKRMQS | 27 | 43 | 16
38 | – | GTALNLQKDINK | 6 | 12 | 6
39 | – | DASQYPLVSGLW | 10 | 16 | 6
40 | – | VESGHAYSVSSW | 14 | 20 | 6
41 | – | NAVHRPDLNLLA | 15 | 22 | 7
42 | – | QANLYYWDPSDL | 8 | 17 | 9
43 | – | GLWDGKGRIVEV | 9 | 16 | 7
44 | – | DRGLTILTDDLR | 27 | 34 | 7
45 | – | EFARFRVFGVAE | 22 | 30 | 8
46 | – | WEKHTGPLSRYL | 6 | 19 | 13
47 | – | WSGGMEDNSNRL | 9 | 18 | 9
48 | – | AIMSYNSPWIQG | 9 | 17 | 8

Row | Count [2] | Molecule | Count Excised Nerve [1] | Count Nerve Extract [1] | Count Neuron [1]
49 | – | KTTSMTALTMGL | 9 | 21 | 12
50 | – | WVGPDIIAQMRI | 8 | 16 | 8
51 | – | FDPLSRNVPHKT | 16 | 22 | 6
52 | – | SLGSSFVQGGEL | 12 | 19 | 7
53 | – | QRATNDILIRGW | 9 | 17 | 8
54 | – | NRIGHGTATGTL | 22 | 28 | 6
55 | – | WPLKRFEQLPLK | 6 | 14 | 8
56 | – | VRSDMVSGGLQK | 14 | 20 | 6
57 | – | GLTIMSSRHSLQ | 12 | 18 | 6
58 | – | TDNGSFLGKLTS | 7 | 14 | 7
59 | – | SGEYNLIKPNLL | 20 | 27 | 7
60 | 27 | TSAVSLR | – | – | –
61 | 27 | DRMYSTVPAEGL | – | – | –
62 | 27 | TTLWLDRDEALK | – | – | –
63 | 27 | SVVGWAAPRTAQ | – | – | –
64 | 27 | EAVSTQI | – | – | –
65 | 27 | TILKPAAQGFAD | – | – | –
66 | 27 | HQSVTGVRSHFH | – | – | –
67 | 27 | GINLRALDLHAN | – | – | –
68 | 27 | CKSPIKGTC | – | – | –
69 | 27 | CVLKCEDQKYRG | – | – | –
70 | 27 | CLQKNHKFC | – | – | –
